These results are taken from US9636418B2 (priority 2013, dated 2017).

What all share (assay): cell-based
One assay addresses hNav1.4 (Homo sapiens, UniProt P35499). The conditions noted are these: for pIC50: PatchXpress, tonic block, read-out: PX hNav1.4 Tonic IC50; for Nav1.4/Nav1.7: ratio of PX tonic IC50 values.
The target in a further assay is hNav1.7 (Homo sapiens, UniProt Q15858). The assay is classed as cell-based. The conditions noted are these: PatchXpress, tonic block; read-out: PX hNav1.7 Tonic IC50.
In a further assay the target is hNav1.5 (Homo sapiens, UniProt Q14524). The conditions noted are these: for pIC50: PatchXpress, tonic block, read-out: PX hNav1.5 Tonic IC50; for Nav1.5/Nav1.7: ratio of PX tonic IC50 values.
Sequence of hNav1.5 (Q14524 whole entry): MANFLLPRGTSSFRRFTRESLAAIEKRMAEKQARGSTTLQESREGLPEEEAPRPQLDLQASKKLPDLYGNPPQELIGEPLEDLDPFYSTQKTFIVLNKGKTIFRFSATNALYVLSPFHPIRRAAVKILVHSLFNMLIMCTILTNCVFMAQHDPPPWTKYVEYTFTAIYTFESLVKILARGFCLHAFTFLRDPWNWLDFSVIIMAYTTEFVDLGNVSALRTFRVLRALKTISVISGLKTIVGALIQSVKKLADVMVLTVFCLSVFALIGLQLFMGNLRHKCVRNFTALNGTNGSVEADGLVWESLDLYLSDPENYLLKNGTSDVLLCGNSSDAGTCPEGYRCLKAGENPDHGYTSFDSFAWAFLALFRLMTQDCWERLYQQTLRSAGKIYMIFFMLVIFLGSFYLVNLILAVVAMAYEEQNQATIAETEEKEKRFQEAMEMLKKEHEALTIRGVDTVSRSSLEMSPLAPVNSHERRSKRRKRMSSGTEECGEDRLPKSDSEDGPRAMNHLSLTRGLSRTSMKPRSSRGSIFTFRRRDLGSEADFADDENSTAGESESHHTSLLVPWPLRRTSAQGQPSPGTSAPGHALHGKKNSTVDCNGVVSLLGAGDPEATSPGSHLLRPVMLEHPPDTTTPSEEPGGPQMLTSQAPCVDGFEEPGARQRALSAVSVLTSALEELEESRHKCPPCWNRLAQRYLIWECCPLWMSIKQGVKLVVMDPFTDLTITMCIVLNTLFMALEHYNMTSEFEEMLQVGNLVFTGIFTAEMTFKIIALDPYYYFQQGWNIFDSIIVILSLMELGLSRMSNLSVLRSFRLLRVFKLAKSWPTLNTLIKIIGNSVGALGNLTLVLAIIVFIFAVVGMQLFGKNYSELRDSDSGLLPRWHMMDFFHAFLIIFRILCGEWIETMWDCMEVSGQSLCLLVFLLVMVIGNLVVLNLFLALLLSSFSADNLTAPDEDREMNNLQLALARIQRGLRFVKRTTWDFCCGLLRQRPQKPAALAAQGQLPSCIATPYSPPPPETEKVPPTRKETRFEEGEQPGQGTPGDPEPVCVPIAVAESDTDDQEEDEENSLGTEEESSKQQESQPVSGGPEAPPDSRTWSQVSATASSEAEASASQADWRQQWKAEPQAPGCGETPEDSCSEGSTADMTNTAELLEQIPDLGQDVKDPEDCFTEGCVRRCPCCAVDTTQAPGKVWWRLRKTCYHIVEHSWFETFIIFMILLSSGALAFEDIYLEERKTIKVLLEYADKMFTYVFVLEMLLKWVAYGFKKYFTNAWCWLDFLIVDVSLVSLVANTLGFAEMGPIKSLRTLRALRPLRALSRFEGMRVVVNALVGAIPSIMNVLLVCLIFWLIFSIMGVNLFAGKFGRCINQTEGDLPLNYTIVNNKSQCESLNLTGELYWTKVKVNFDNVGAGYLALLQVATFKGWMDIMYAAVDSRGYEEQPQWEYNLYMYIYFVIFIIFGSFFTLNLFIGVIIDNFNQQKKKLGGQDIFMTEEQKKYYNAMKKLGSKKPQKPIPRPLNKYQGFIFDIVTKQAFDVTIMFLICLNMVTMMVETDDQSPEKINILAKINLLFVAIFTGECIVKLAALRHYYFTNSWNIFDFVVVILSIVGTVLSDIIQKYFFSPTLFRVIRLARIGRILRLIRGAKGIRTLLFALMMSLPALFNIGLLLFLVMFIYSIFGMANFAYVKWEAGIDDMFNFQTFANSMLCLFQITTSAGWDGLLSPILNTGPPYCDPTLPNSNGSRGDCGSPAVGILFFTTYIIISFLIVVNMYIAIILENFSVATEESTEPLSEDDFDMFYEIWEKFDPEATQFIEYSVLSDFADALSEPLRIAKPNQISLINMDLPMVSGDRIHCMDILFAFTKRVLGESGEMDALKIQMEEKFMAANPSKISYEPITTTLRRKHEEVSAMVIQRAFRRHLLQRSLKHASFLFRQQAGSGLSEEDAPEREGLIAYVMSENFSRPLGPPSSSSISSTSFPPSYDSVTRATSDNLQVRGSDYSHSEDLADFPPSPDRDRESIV

As a reminder, the pIC50 is the IC50 on a negative log10 scale, so that one unit is a factor of ten.

Molecules are shown by their SMILES. pIC50: −log10 of the molar value.

Sequence of hNav1.4 (P35499 whole entry): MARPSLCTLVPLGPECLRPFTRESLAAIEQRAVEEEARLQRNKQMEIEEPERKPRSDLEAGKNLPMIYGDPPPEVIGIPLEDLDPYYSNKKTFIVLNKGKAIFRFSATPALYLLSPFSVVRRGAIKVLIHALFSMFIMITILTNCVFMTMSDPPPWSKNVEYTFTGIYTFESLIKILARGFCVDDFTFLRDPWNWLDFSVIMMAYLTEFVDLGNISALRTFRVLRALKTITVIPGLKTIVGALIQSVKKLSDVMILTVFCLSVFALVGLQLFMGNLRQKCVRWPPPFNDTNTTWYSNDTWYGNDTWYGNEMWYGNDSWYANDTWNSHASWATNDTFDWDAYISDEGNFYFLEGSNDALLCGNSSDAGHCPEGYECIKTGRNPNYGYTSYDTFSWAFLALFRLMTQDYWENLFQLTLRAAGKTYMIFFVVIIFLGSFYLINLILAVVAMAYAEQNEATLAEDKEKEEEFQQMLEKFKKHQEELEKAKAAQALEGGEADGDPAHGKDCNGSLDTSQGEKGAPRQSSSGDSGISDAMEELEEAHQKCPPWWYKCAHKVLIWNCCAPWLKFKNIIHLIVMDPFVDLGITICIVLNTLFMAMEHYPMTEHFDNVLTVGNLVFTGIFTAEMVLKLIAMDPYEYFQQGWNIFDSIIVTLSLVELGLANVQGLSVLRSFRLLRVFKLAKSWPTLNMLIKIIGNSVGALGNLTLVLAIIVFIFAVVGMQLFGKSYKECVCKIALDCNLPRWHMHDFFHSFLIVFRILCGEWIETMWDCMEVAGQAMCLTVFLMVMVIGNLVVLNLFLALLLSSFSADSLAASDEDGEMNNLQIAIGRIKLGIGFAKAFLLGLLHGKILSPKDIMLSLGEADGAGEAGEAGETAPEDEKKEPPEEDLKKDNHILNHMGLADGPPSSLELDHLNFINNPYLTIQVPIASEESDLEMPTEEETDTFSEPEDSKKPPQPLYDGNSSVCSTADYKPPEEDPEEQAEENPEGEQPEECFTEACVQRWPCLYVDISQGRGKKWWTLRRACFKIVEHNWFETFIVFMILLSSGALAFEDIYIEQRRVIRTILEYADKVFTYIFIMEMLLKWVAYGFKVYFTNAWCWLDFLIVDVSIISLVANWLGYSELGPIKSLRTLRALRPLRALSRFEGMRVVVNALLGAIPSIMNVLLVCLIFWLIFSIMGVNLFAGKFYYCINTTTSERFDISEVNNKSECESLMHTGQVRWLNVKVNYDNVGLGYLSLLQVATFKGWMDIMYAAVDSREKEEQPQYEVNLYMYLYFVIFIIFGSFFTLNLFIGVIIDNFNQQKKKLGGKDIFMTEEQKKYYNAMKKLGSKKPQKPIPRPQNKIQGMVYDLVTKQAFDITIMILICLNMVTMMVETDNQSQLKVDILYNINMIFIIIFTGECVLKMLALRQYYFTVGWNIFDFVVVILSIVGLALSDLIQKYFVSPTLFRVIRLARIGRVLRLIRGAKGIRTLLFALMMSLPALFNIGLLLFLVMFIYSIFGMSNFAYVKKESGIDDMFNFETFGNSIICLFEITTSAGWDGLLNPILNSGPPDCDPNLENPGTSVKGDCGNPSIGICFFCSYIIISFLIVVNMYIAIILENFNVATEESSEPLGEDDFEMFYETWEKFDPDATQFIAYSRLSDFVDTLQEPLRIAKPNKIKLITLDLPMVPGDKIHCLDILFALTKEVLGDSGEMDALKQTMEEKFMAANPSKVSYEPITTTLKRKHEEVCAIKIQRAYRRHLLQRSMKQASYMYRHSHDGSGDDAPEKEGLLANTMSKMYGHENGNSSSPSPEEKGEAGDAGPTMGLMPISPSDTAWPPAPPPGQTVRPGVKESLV

Regarding `CCCC[C@@H]1NC(=O)[C@H](Cc2c[nH]c3ccccc23)NC(=O)[C@H](CCCCN)NC(=O)[C@H](CCC(N)=O)NC(=O)[C@@H](NC(=O)[C@@H](N)CCCCN=[N+]=[N-])CSSC[C@@H]2NC(=O)[C@@H]3CSSC[C@@H](C(=O)N[C@@H](CCCNC(=N)N)C(=O)N[C@@H](CCCCN)C(=O)N[C@H](C(=O)N[C@@H](Cc4c[nH]c5ccccc45)C(N)=O)[C@@H](C)CC)NC(=O)[C@H](Cc4c[nH]c5ccccc45)NC(=O)[C@H](CC(C)C)NC(=O)[C@H](CCCCN)NC(=O)[C@H](CSSC[C@H](NC(=O)[C@H]([C@@H](C)O)NC(=O)[C@H](Cc4c[nH]c5ccccc45)NC1=O)C(=O)N[C@@H](CC(=O)O)C(=O)N[C@@H](CO)C(=O)N[C@@H](CCCCN)C(=O)N[C@@H](CCCNC(=N)N)C(=O)N[C@@H](C)C(=O)N3)NC(=O)[C@H](CCC(=O)O)NC(=O)[C@H](CC(C)C)NC(=O)CNC(=O)[C@H](CCC(=O)O)NC2=O` [compound 304], the pIC50 was 5.76 on hNav1.4, 8.41 on hNav1.7 and 5.59 at hNav1.5.
Consider `CCCC[C@@H]1NC(=O)[C@H](Cc2c[nH]c3ccccc23)NC(=O)[C@H](CCCCN)NC(=O)[C@H](CCC(N)=O)NC(=O)[C@@H](NC(=O)[C@@H](N)Cc2ccc(O)cc2)CSSC[C@@H]2NC(=O)[C@@H]3CSSC[C@@H](C(=O)N[C@@H](CCCNC(=N)N)C(=O)N[C@@H](CCCCN)C(=O)N[C@H](C(=O)N[C@@H](Cc4c[nH]c5ccccc45)C(N)=O)[C@@H](C)CC)NC(=O)[C@H](Cc4c[nH]c5ccccc45)NC(=O)[C@H](CC(C)C)NC(=O)[C@H](CCCCN)NC(=O)[C@H](CSSC[C@H](NC(=O)[C@H]([C@@H](C)O)NC(=O)[C@H](Cc4c[nH]c5ccccc45)NC1=O)C(=O)N[C@@H](CC(=O)O)C(=O)N[C@@H](CCCCN=[N+]=[N-])C(=O)N[C@@H](CCCCN)C(=O)N[C@@H](CCCNC(=N)N)C(=O)N[C@@H](C)C(=O)N3)NC(=O)[C@H](CCC(=O)O)NC(=O)[C@H](CC(C)C)NC(=O)CNC(=O)[C@H](CCC(=O)O)NC2=O` [compound 305], for which the Nav1.4/Nav1.7 at hNav1.4 turned out to be 0. The negative logarithm of the IC50 (pIC50) at hNav1.7 is 6.36. Besides, the Nav1.5/Nav1.7 on hNav1.5 is reported as 0.
Regarding `CCCC[C@@H]1NC(=O)[C@H](Cc2c[nH]c3ccccc23)NC(=O)[C@H](CCCCN)NC(=O)[C@H](CCC(N)=O)NC(=O)[C@@H](NC(=O)[C@@H](N)Cc2ccc(O)cc2)CSSC[C@@H]2NC(=O)[C@@H]3CSSC[C@@H](C(=O)N[C@@H](CCCNC(=N)N)C(=O)N[C@@H](CCCCN)C(=O)N[C@H](C(=O)N[C@@H](Cc4c[nH]c5ccccc45)C(N)=O)[C@@H](C)CC)NC(=O)[C@H](Cc4c[nH]c5ccccc45)NC(=O)[C@H](CC(C)C)NC(=O)[C@H](CCCCN)NC(=O)[C@H](CSSC[C@H](NC(=O)[C@H]([C@@H](C)O)NC(=O)[C@H](Cc4c[nH]c5ccccc45)NC1=O)C(=O)N[C@@H](CC(=O)O)C(=O)N[C@@H](CO)C(=O)N[C@@H](CCCCN)C(=O)N[C@@H](CCCNC(=N)N)C(=O)N[C@@H](CCCCN=[N+]=[N-])C(=O)N3)NC(=O)[C@H](CCC(=O)O)NC(=O)[C@H](CC(C)C)NC(=O)CNC(=O)[C@H](CCC(=O)O)NC2=O` [compound 306], the pIC50 on hNav1.4 is 6.20; at hNav1.7 it was 8.94; on hNav1.5 it was 5.71. The Nav1.4/Nav1.7 on hNav1.4 is 550.
`CCCC[C@@H]1NC(=O)[C@H](Cc2c[nH]c3ccccc23)NC(=O)[C@H](CCCCN)NC(=O)[C@H](CCC(N)=O)NC(=O)[C@@H](NC(=O)[C@@H](N)Cc2ccc(O)cc2)CSSC[C@@H]2NC(=O)[C@@H]3CSSC[C@@H](C(=O)N[C@@H](CCCNC(=N)N)C(=O)N[C@@H](CCCCN)C(=O)N[C@H](C(=O)N[C@@H](Cc4c[nH]c5ccccc45)C(N)=O)[C@@H](C)CC)NC(=O)[C@H](Cc4c[nH]c5ccccc45)NC(=O)[C@H](CC(C)C)NC(=O)[C@H](CCCCN)NC(=O)[C@H](CSSC[C@H](NC(=O)[C@H]([C@@H](C)O)NC(=O)[C@H](Cc4c[nH]c5ccccc45)NC1=O)C(=O)N[C@@H](CC(=O)O)C(=O)N[C@@H](CO)C(=O)N[C@@H](CCCCN)C(=O)N[C@@H](CCCNC(=N)N)C(=O)N[C@@H](C)C(=O)N3)NC(=O)[C@H](CCC(=O)O)NC(=O)[C@H](CC(C)C)NC(=O)CNC(=O)[C@H](CCCCN=[N+]=[N-])NC2=O` [compound 307]: the pIC50 is 6.44 at hNav1.4, 8.04 on hNav1.7 and 6.12 on hNav1.5. For the same molecule, at hNav1.4, the Nav1.4/Nav1.7 stood at 40. For the same molecule, the Nav1.5/Nav1.7 at hNav1.5 is on record as 83.
`CCCC[C@@H]1NC(=O)[C@H](Cc2c[nH]c3ccccc23)NC(=O)[C@H](CCCCN)NC(=O)[C@H](CCC(N)=O)NC(=O)[C@@H](NC(=O)[C@H](Cc2ccc(O)cc2)NC(=O)[C@@H](N)CCN=[N+]=[N-])CSSC[C@@H]2NC(=O)[C@@H]3CSSC[C@@H](C(=O)N[C@@H](CCCNC(=N)N)C(=O)N[C@@H](CCCCN)C(=O)N[C@H](C(=O)N[C@@H](Cc4c[nH]c5ccccc45)C(N)=O)[C@@H](C)CC)NC(=O)[C@H](Cc4c[nH]c5ccccc45)NC(=O)[C@H](CC(C)C)NC(=O)[C@H](CCCCN)NC(=O)[C@H](CSSC[C@H](NC(=O)[C@H]([C@@H](C)O)NC(=O)[C@H](Cc4c[nH]c5ccccc45)NC1=O)C(=O)N[C@@H](CC(=O)O)C(=O)N[C@@H](CO)C(=O)N[C@@H](CCCCN)C(=O)N[C@@H](CCCNC(=N)N)C(=O)N[C@@H](C)C(=O)N3)NC(=O)[C@H](CCC(=O)O)NC(=O)[C@H](CC(C)C)NC(=O)CNC(=O)[C@H](CCC(=O)O)NC2=O` [compound 308]: the pIC50 at hNav1.4 was 5.92; at hNav1.7 it was 8.95; on hNav1.5, 5.42.
For `CCCC[C@@H]1NC(=O)[C@H](Cc2c[nH]c3ccccc23)NC(=O)[C@H](CCCCN)NC(=O)[C@H](CCC(N)=O)NC(=O)[C@@H](NC(=O)[C@@H](N)CCN=[N+]=[N-])CSSC[C@@H]2NC(=O)[C@@H]3CSSC[C@@H](C(=O)N[C@@H](CCCNC(=N)N)C(=O)N[C@@H](CCCCN)C(=O)N[C@H](C(=O)N[C@@H](Cc4c[nH]c5ccccc45)C(N)=O)[C@@H](C)CC)NC(=O)[C@H](Cc4c[nH]c5ccccc45)NC(=O)[C@H](CC(C)C)NC(=O)[C@H](CCCCN)NC(=O)[C@H](CSSC[C@H](NC(=O)[C@H]([C@@H](C)O)NC(=O)[C@H](Cc4c[nH]c5ccccc45)NC1=O)C(=O)N[C@@H](CC(=O)O)C(=O)N[C@@H](CO)C(=O)N[C@@H](CCCCN)C(=O)N[C@@H](CCCNC(=N)N)C(=O)N[C@@H](C)C(=O)N3)NC(=O)[C@H](CCC(=O)O)NC(=O)[C@H](CC(C)C)NC(=O)CNC(=O)[C@H](CCC(=O)O)NC2=O` [compound 309], in that order: 6.12, 8.49 and 5.69.
In the same order, the values of `C#CC[C@H](N)C(=O)N[C@@H](Cc1ccc(O)cc1)C(=O)N[C@H]1CSSC[C@@H]2NC(=O)[C@@H]3CSSC[C@@H](C(=O)N[C@@H](CCCNC(=N)N)C(=O)N[C@@H](CCCCN)C(=O)N[C@@H](Cc4ccc(O)cc4)C(=O)N[C@H](C(N)=O)[C@@H](C)CC)NC(=O)[C@H](Cc4c[nH]c5ccccc45)NC(=O)[C@H](CC(C)C)NC(=O)[C@H](CCCCN)NC(=O)[C@H](CSSC[C@H](NC(=O)[C@H]([C@@H](C)O)NC(=O)[C@H](Cc4c[nH]c5ccccc45)NC(=O)[C@H](CCCC)NC(=O)[C@H](Cc4c[nH]c5ccccc45)NC(=O)[C@H](CCCCN)NC(=O)[C@H](CCC(N)=O)NC1=O)C(=O)N[C@@H](CC(=O)O)C(=O)N[C@@H](CO)C(=O)N[C@@H](CCCCN)C(=O)N[C@@H](CCCNC(=N)N)C(=O)N[C@@H](C)C(=O)N3)NC(=O)[C@H](CCC(=O)O)NC(=O)[C@H](CC(C)C)NC(=O)CNC(=O)[C@H](CCC(=O)O)NC2=O` [compound 313] are 6.02, 9.37 and 5.36.
As for `C#CC[C@@H]1NC(=O)[C@H](CC(=O)O)NC(=O)[C@@H]2CSSC[C@@H]3NC(=O)[C@H](CCC(=O)O)NC(=O)[C@H](CC(C)C)NC(=O)CNC(=O)[C@H](CCC(=O)O)NC(=O)[C@H](CSSC[C@H](NC(=O)[C@@H](N)Cc4ccc(O)cc4)C(=O)N[C@@H](CCC(N)=O)C(=O)N[C@@H](CCCCN)C(=O)N[C@@H](Cc4c[nH]c5ccccc45)C(=O)N[C@@H](CCCC)C(=O)N[C@@H](Cc4c[nH]c5ccccc45)C(=O)N[C@@H]([C@@H](C)O)C(=O)N2)NC(=O)[C@H](CSSC[C@@H](C(=O)N[C@@H](CCCNC(=N)N)C(=O)N[C@@H](CCCCN)C(=O)N[C@@H](Cc2ccc(O)cc2)C(=O)N[C@H](C(N)=O)[C@@H](C)CC)NC(=O)[C@H](Cc2c[nH]c4ccccc24)NC(=O)[C@H](CC(C)C)NC(=O)[C@H](CCCCN)NC3=O)NC(=O)[C@H](C)NC(=O)[C@H](CCCNC(=N)N)NC(=O)[C@H](CCCCN)NC1=O` [compound 315], the pIC50 is 6.08 at hNav1.4, 8.89 at hNav1.7 and 5.61 on hNav1.5.
Turning to `C#CC[C@@H]1NC(=O)[C@H](CCCNC(=N)N)NC(=O)[C@H](CCCCN)NC(=O)[C@H](CO)NC(=O)[C@H](CC(=O)O)NC(=O)[C@@H]2CSSC[C@@H]3NC(=O)[C@H](CCC(=O)O)NC(=O)[C@H](CC(C)C)NC(=O)CNC(=O)[C@H](CCC(=O)O)NC(=O)[C@H](CSSC[C@H](NC(=O)[C@@H](N)Cc4ccc(O)cc4)C(=O)N[C@@H](CCC(N)=O)C(=O)N[C@@H](CCCCN)C(=O)N[C@@H](Cc4c[nH]c5ccccc45)C(=O)N[C@@H](CCCC)C(=O)N[C@@H](Cc4c[nH]c5ccccc45)C(=O)N[C@@H]([C@@H](C)O)C(=O)N2)NC(=O)[C@H](CSSC[C@@H](C(=O)N[C@@H](CCCNC(=N)N)C(=O)N[C@@H](CCCCN)C(=O)N[C@@H](Cc2ccc(O)cc2)C(=O)N[C@H](C(N)=O)[C@@H](C)CC)NC(=O)[C@H](Cc2c[nH]c4ccccc24)NC(=O)[C@H](CC(C)C)NC(=O)[C@H](CCCCN)NC3=O)NC1=O` [compound 316], the pIC50 on hNav1.4 was 6.15; at hNav1.7, 8.75; at hNav1.5 it was 5.43.
